Reference: patent US20090281054A1, “COMPOSITIONS AND METHODS COMPRISING CAPURAMYCIN ANALOGUES” (priority 2008, published 2009)
≈ marks a conversion by molar mass, not a printed value. Where two headings read alike, the source gives them in different places.

Assays:
[1] = tested on: MTB cultures; assay: Induction of morphological changes and bacterial disintegration; format: cell-based, Mycobacterium tuberculosis
Text: Induction of morphological changes and bacterial disintegration. […] Tubercle bacilli exposed to CM analogues were typically club-shaped, with deeply stained swollen ends (see Reddy et al. Antimicrob. Agents Chemother., 2008, 52(2), 719-721).

[2] = tested on: M. abscessus (MAB; ATCC 700869); assay: MIC by microdilution method in 7H9 broth; format: cell-based; conditions: Mycobacteroides abscessus, ATCC700869; MAB 700869; read-out: MIC
[3] = tested on: MTB in J774 cells; assay: Intracellular activity of amino acid conjugates; format: cell-based, Mycobacterium tuberculosis; conditions: day 0 RLU 775, Control day 7 31700
Procedure: The amino acid conjugates were tested at concentrations of 4 mg/mL and 8 mg/mL compared with a control and isoniazid (INH).
The intracellular activity against MTB by capuramycin amino acid derivatives was tested. Cells J774 were infected with MTB and treated for 7 days with the amino acid derivative. The mean Relative Light Unites (RLU), an estimation of bacterial viability, was measured as described in Snewin et al., Infect. Immun., 1999, 67(9), 4586-4593).

[4] = tested on: MAC; assay: Synergy by checkerboard titration (microdilution); format: cell-based, M. avium complex; conditions: for MIC: Mycobacterium avium, drug alone
[5] = tested on: M. avium complex (MAC); assay: MIC by microdilution method in 7H9 broth; format: cell-based
[6] = tested on: intracellular MTB (MTBp-SMT1) in J774A.1 macrophages; assay: Intracellular activity of SQ641-TPGS micelles; format: cell-based, Mycobacterium tuberculosis
[7] = tested on: MTB-H37Rv; assay: Post-antibiotic effect (PAE); format: cell-based, Mycobacterium tuberculosis
Procedure: PAE of SQ641. PAE of SQ641 was determined as described (Chan et al. Antimicrob. Agents Chemother., 2004, 48(1), 340-343). At the end of incubation, suspensions were diluted 1/25, and 0.1 ml was injected into each of triplicate BACTEC vials: drug dilution was 1000-fold in the BACTEC vials. Drug carryover controls (to ascertain absence of any carryover drug) consisting of the same MTB suspension as in the test and similar drug dilutions were mixed immediately, diluted 1/25, and 0.1 ml was injected into BACTEC vials. BACTEC vials were incubated at 37° C. and read in a BACTEC TB-460 reader every 24 hr until the cumulative GI in the control reached 999. PAE was calculated from the formula PAE=T−C, where T is the time required for the drug-exposed organisms to reach a cumulative GI of 100 and C is the time required for the controls to reach a cumulative GI of 100.
PAE determines the time required for the organisms to recover following exposure to an antimicrobial agent for a short duration. PAE activities of both SQ641 and INH, each at 4 μg/ml, were investigated with MTB-H37Rv. Following 2 hr of exposure to drugs, the PAE of INH was 17 hr as compared to 55 hr for SQ641. The PAE of SQ641 was over 3 times that of INH.

[8] = tested on: MTB; assay: Activity in acidic pH (microdilution in 7H9 broth); format: cell-based, Mycobacterium tuberculosis; conditions: pH 7.0 to 5.0
Text: Activity in acidic pH. The pH in macrophage phagolysomes is ˜5.5. To be effective against intracellular organisms, anti-TB drugs should concentrate inside macrophages and be active in an acidic environment. The activity of SQ641 against MTB was investigated by microdilution method in 7H9 broth at different hydrogen ion concentrations.

[9] = tested on: MTB-pSMT1 luciferase reporter strain; assay: Activity against slowly replicating (hypoxic) MTB; format: cell-based; conditions: Mycobacterium tuberculosis

## CCCCCCCCCC(=O)O[C@@H]1[C@H](OC)[C@@H]([C@@H](O[C@H]2OC(C(=O)N[C@H]3CCC[C@@H](C)NC3=O)=C[C@H](O)[C@@H]2O)C(N)=O)O[C@H]1n1ccc(=O)[nH]c1=O [SQ641]
[1]; MTB cultures
  Bacterial disintegration / clearance of MTB cultures: rapid bacterial disintegration
[1]; within 2 days of exposure
  Turbidity of MTB cultures: marked fall in the turbidity
[2]
  MIC: 0.5 µg/mL (≈ 0.678 µM)
[3]; 4 μg/ml
  Mean RLU on day 7: 4707 RLU
[3]; 8 μg/ml
  Mean RLU on day 7: 2755 RLU
[4]; MAC A5, SQ641 + AMK
  ΣFIC: 0.75
[4]; MAC A5, SQ641 + CLA, ≦0.5 synergistic, ≧4.0 antagonistic
  ΣFIC: 0.75
[4]; MAC A5, combination SQ641 + AMK
  MIC Combination: 0.125 µg/mL
[4]; MAC A5, combination SQ641 + CLA
  MIC Combination: 0.125 µg/mL
[4]; MAC A5, combination SQ641 + EMB
  MIC Combination: 0.062 µg/mL
[4]; MAC JSH1, SQ641 + AMK
  ΣFIC: 0.625
[4]; MAC JSH1, SQ641 + CLA
  ΣFIC: 2.0
[4]; MAC JSH1, combination SQ641 + AMK
  MIC Combination: 0.125 µg/mL
[4]; MAC JSH1, combination SQ641 + CLA
  MIC Combination: 1 µg/mL
[4]; MAC JSH1, combination SQ641 + EMB
  MIC Combination: 0.25 µg/mL
[4]; MAC NIH C1-1, SQ641 + AMK
  ΣFIC: 1.0
[4]; MAC NIH C1-1, SQ641 + CLA
  ΣFIC: 2.0
[4]; MAC NIH C1-1, combination SQ641 + AMK
  MIC Combination: 0.5 µg/mL
[4]; MAC NIH C1-1, combination SQ641 + CLA
  MIC Combination: 2.0 µg/mL
[4]; MAC NIH C1-1, combination SQ641 + EMB
  MIC Combination: 0.06 µg/mL
[4]; MAC A5
  MIC: 0.25 µg/mL
[4]; MAC JSH1
  MIC: 1 µg/mL
[4]; MAC NIH C1-1
  MIC: 2 µg/mL
[5]; Mycobacterium avium, 336 h, MAC isolates, 2 wk, read-out: MIC (range)
  MIC: 0.125 to 2 µg/mL (≈ 0.169 to 2.71 µM)
[5]; Mycobacterium avium, MAC strain 100, read-out: MIC
  MIC: 2 µg/mL (≈ 2.71 µM)
[5]; Mycobacterium avium, MAC strain 101, read-out: MIC
  MIC: 0.12 µg/mL (≈ 0.163 µM)
[5]; Mycobacterium avium, MAC strain 104, read-out: MIC
  MIC: 2 µg/mL (≈ 2.71 µM)
[5]; Mycobacterium avium, MAC strain 109, read-out: MIC
  MIC: 0.12 µg/mL (≈ 0.163 µM)
[5]; Mycobacterium avium, MAC strain A5, read-out: MIC
  MIC: 0.5 µg/mL (≈ 0.678 µM)
[5]; Mycobacterium avium, MAC strain JSH1, read-out: MIC
  MIC: 2 µg/mL (≈ 2.71 µM)
[5]; Mycobacterium avium, MAC strain NIH C1-1, read-out: MIC
  MIC: 0.5 µg/mL (≈ 0.678 µM)
[5]; Mycobacterium avium, MAC strain NIH C1-2, read-out: MIC
  MIC: 0.25 µg/mL (≈ 0.339 µM)
[5]; Mycobacterium avium, MAC strain NIH C1-3, read-out: MIC
  MIC: 2 µg/mL (≈ 2.71 µM)
[5]; Mycobacterium avium, MAC strain NIH C1-4, read-out: MIC
  MIC: 0.5 µg/mL (≈ 0.678 µM)
[5]; Mycobacterium avium, MAC isolates, value in square brackets, read-out: MIC90
  MIC90: 2 µg/mL (≈ 2.71 µM)
[5]; ten MAC isolates (Table 6)
  MIC range: 0.125 to 2 µg/mL
[6]; Expt 1, one day drug exposure, 5 μg/ml, Day 0 RLU 104, CONTROL Day 7 906
  Mean RLU at Day 7: 95 RLU
[6]; Expt 1, one day drug exposure, 10 μg/ml, Day 0 RLU 104, CONTROL Day 7 906
  Mean RLU at Day 7: 64 RLU
[6]; Expt 1, one day drug exposure, 20 μg/ml, Day 0 RLU 104, CONTROL Day 7 906
  Mean RLU at Day 7: 47 RLU
[6]; Expt 2, four days drug exposure, 4 μg/ml, Day 0 RLU 205, CONTROL Day 7 491
  Mean RLU at Day 7: 62 RLU
[6]; Expt 2, four days drug exposure, 8 μg/ml, Day 0 RLU 205, CONTROL Day 7 491
  Mean RLU at Day 7: 32 RLU
[6]; Expt 2, four days drug exposure, 16 μg/ml, Day 0 RLU 205, CONTROL Day 7 491
  Mean RLU at Day 7: 17 RLU
[6]; Expt 2, four days drug exposure, 32 μg/ml, Day 0 RLU 205, CONTROL Day 7 491
  Mean RLU at Day 7: 8 RLU
[7]; 4 μg/ml, 2 hr of exposure
  PAE (post-antibiotic effect): 55 h
[7]; each at 4 μg/ml
  PAE of SQ641 relative to INH: over 3 times
[8]
  Activity at different hydrogen ion concentrations: no loss
[9]
  MIC: 0.5 µg/mL (≈ 0.678 µM)
